Each structure is given as a SMILES string.

The target in assay [1] is T1, ATP dependent citrate lyase (Mus musculus, UniProt Q91V92).
T1 construct: from tissue
T1 sequence (Q91V92 1-1091): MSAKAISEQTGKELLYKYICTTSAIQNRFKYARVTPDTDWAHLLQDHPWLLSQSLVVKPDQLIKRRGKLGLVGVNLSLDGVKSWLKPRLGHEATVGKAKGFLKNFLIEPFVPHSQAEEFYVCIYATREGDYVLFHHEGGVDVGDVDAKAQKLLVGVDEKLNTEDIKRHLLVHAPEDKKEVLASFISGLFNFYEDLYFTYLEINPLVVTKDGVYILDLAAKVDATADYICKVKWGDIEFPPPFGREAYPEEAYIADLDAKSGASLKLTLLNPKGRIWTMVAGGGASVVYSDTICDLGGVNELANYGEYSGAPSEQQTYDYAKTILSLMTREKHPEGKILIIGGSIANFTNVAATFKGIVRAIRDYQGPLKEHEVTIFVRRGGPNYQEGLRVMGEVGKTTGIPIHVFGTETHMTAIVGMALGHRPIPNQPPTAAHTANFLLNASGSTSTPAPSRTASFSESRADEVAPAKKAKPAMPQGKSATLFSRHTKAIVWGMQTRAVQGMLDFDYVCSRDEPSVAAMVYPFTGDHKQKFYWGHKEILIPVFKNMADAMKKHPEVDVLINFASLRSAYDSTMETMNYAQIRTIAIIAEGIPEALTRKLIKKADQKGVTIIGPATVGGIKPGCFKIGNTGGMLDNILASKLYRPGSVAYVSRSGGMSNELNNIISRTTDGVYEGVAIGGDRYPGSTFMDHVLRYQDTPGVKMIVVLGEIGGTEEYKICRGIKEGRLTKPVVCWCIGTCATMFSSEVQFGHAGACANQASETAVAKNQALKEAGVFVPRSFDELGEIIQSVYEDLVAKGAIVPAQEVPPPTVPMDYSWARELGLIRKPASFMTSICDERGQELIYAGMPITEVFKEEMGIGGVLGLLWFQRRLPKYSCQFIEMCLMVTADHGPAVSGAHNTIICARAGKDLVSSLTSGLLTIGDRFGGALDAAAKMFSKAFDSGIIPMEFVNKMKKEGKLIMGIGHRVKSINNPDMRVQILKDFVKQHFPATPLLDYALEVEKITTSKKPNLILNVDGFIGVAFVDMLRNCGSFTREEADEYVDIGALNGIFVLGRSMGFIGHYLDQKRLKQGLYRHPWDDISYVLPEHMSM
Put plainly: Enzymatic studies in vitro: ATP dependent citrate lyase. The class given is biochemical. The note with it: at all concentrations tested.

Assay [2] concerns phosphatidate phosphohydrolase. Put plainly: Enzymatic studies in vitro: phosphatidate phosphohydrolase. The note with it: 200 μM. The class given is biochemical.

Regarding `[BH3-][N+](C)(C)CCCCCCCCCCCCCCCCCC` [I, N-n-Octadecyl-N,N-Dimethylamine Borane], in assay [1], the “reduction of ATP dependent citrate lyase activity” value is reported as “more than 50%”. In addition, the “reduction in phosphatidate phosphohydrolase activity” value in assay [2] stood at 67%.

Values taken from patent US4740504A, “Antihyperlipidemic amine boranes” (United States Borax & Chemical Corp., priority 1987, dated 1988).
